From patent US20210170043A1, “DC-SIGN ANTIBODY CONJUGATES COMPRISING STING AGONISTS” (NOVARTIS AG, priority 2018, published 2021)
Blank lines part the entries; values can stand above or below the molecule they belong to.

How the values were obtained:
THP1-Dual cells = experiment: THP1-Dual assay (Lucia reporter); assay type: cell-based; settings: Homo sapiens, 384 well, 16-24 hours, normalized to 2'3'-cGAMP at 50 uM
Protocol: THP1-Dual cells were purchased from Invivogen. THP1-Dual cells were plated in 384 well plates in 20 uL of tissue culture media and incubated overnight. Compounds were added the next day and incubated 16-24 hours. Lucia reporter signal was read out by adding Quantiluc reagent (Invivogen) followed by reading on an Envision plate reader. The fold change over background was calculated and normalized to the fold-change induced by 2′3′-cGAMP at 50 uM. Plates were run in triplicate.

human STING wild type = target: T1, human STING wild type (Homo sapiens, UniProt Q86WV6, H232R); experiment: hSTING wt assay (5xISRE-mIFNb-GL4 luciferase reporter in transfected HEK-293T cells); assay type: cell-based; settings: read after 9-14 hours, normalized to 2'3'-cGAMP at 50 uM
T1 construct: expressed in transfected cells; host or cells: HEK-293T
Protocol: Cells were incubated overnight and treated with compounds. After 9-14 hours, plates were read by adding BrightGlo reagent (Promega) and reading on an Envision plate reader. The fold change over background was calculated and normalized to the fold-change induced by 2′3′-cGAMP at 50 uM. Plates were run in triplicate.

[1] = tested on: transgenic mice expressing human DC-SIGN gene (Tg+); experiment: Plasma cytokine production in transgenic mice expressing human DC-SIGN (ELISA / MesoScaleDiscovery); assay type: in vivo, mouse
Protocol: FIGS. 5A-5E show exemplary data on DC-SIGN immunoconjugates inducing cytokine production in Tg+ mice. […] Plasma levels were analyzed by ELISA (IP-10 and IFNβ) or MesoScaleDiscovery Multiplex analysis (all other analytes). **** denotes p value of <0.0001 using an ANOVA with Tukey's test compared to Tg-2B2 hlgG1 DAPA C1 group.
(§1) Mice were bled 6 hours after dosing to collect plasma for analysis of circulating cytokine levels.

[2] = tested on: transgenic mice expressing human DC-SIGN gene (Tg+); experiment: Plasma cytokine and chemokine levels in human DC-SIGN transgenic mice; assay type: in vivo, mouse; settings: 100 μg free compound i.v., 6 hours post dose, vs untreated and 10 μg
Protocol: Blood was collected at 6 hours post dose to analyze plasma cytokine and chemokine levels and spleens were analyzed at 24 hours post dose to look at dendritic cell activation.
as §1
Plasma was collected at indicated timepoints and analyzed with a Mouse IP-10 Platinum ELISA kit (eBioscience Affymetrix). Plasma was diluted 1:100 and the protocol was followed according to the manufacturer's recommendations. Data was collected using an Enspire spectro-photometer using […] as the primary wavelength.
Plasma was collected at indicated timepoints and analyzed with a Mouse IFN-beta ELISA kit (R&D Systems) according to the manufacturer's recommendations. Data was collected using an Enspire spectro-photometer using […] as the primary wavelength.
Plasma was collected at indicated timepoints and analyzed with a mouse Proinflammatory Panel 1 (mouse) Kit V-PLEX™ 10 plex from MesoScale Discovery. 25 μL of plasma per sample was used and protocol was followed according to the manufacturer's recommendations. Data were collected and analyzed using a Sector Imager 6000.
Human DC-SIGN transgenic mice (Tg+) (Schaefer et al., J. Immunol. (2008) 180 (10) 6836-6845) were bred to Signr1 deficient mice (−/− or KO) (Orr et al., Glycobiology (2013) 23(3): 363-380). Human DC-SIGN expression was checked using PCR to genotype the mice. Human DC-SIGN Tg+ Signr1−/− mice or human DC-SIGN Tg− Signr1−/− mice were tested with compounds as indicated in the above examples.

THP1-Dual/STING-KO cells = experiment: THP1-Dual/STING-KO assay; assay type: cell-based; settings: Homo sapiens, pooled STING-KO clones
Protocol: The fold change over background was calculated and normalized to the fold-change induced by 2′3′-cGAMP at 50 uM. Plates were run in triplicate.

T1 sequence (Q86WV6 whole entry H232R): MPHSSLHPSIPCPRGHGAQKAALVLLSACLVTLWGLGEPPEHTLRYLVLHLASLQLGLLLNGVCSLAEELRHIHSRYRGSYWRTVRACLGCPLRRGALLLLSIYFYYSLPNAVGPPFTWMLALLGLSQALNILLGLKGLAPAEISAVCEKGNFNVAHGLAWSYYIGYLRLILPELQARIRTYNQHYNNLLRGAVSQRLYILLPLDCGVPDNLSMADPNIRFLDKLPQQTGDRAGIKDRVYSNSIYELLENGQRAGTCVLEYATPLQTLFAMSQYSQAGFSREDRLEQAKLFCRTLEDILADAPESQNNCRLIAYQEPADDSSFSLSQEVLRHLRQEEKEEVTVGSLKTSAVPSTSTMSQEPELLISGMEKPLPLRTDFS

SMILES: Nc1ncnc2c1ncn2[C@@H]1O[C@@H]2CO[P@@](=O)(S)O[C@@H]3[C@H](O)[C@@H](CO[P@@](=O)(S)O[C@H]2[C@H]1F)O[C@H]3n1cnc2c(N)ncnc21 [Compound T1-2]
EC50 (THP1-Dual cells): 1990 nM

EC50 (human STING wild type): > 25000 nM
SMILES: NCCCNc1ncnc2c1ncn2[C@@H]1O[C@@H]2CO[P@@](=O)(S)O[C@H]3[C@@H](F)[C@H](n4cnc5c(N)ncnc54)O[C@@H]3CO[P@@](=O)(S)O[C@H]2[C@H]1F

EC50 (THP1-Dual/STING-KO cells): > 50000 nM | EC50 (human STING wild type): 294 nM
SMILES: Nc1ncnc2c1ncn2C1OC2COP(=O)(S)OC3C(COP(=O)(S)OC2C1F)OC(n1cnc2c(N)ncnc21)C3F (stereo not drawn) [Compound T1-1, di-2′-F—RR-CDA]
circulating plasma IL-12p70 [1]: increased | circulating plasma IP-10 [1]: increased | circulating plasma TNFα [1]: increased | plasma IL-12p70 [2]: increased | plasma IP-10 [2]: increased | plasma TNFα [2]: increased | EC50 (THP1-Dual cells): 462 nM

SMILES: CCCCCCCCCCO[C@@H]1[C@@H]2O[P@](=O)(S)OC[C@H]3O[C@@H](n4cnc5c(N)ncnc54)[C@H](O[P@](=O)(S)OC[C@H]2O[C@H]1n1cnc2c(N)ncnc21)[C@@H]3O
EC50 (THP1-Dual cells): > 25000 nM
